Columns and labels:
[1] = test system: SW1990GR cells; assay: Annexin V/DAPI apoptosis by flow cytometry; assay type: cell-based; conditions: 100 nM or 200 nM CYM, one day; TRA-1-81+ and TRA-1-81− subpopulations
Method: Flow cytometry. TRA-1-60 PerCP-efluor710 (eBioscience, 1:50) and TRA-1-81 PE (eBioscience, 1:100) were used. Cells were blocked with 5% FBS plus mouse IgM isotype control antibody (eBioscience, 1:100) at room temperature for 15 min, then stained on ice for 30 min. Stained cells were resuspended in PBS containing 300 nM DAPI and proceeded to analysis or sorting. Cell apoptosis was analyzed with FITC-AnnexinV labeling reagent (BD). Flow cytometry analysis was carried out on BD FACS Calibur with FlowJo 9.8 software. Sorting was performed with FACSVantage SE (Becton Dickinson).

[2] = test system: SW1990 xenograft tumors; assay: Luciferase-labeled SW1990 xenograft in nude mice; assay type: in vivo
Method: CYM suppresses TRA-1-60 expression and blocks tumor growth in vivo. Next it was sought to validate the effects of CYM in vivo, using a xenograft model with luciferase-labeled SW1990 cells propagated in nude mice. Tumor-harboring mice were separated into 4 groups and treated with PBS (control), 2 mg/kg CYM, 50 mg/kg GEM, or 2 mg/kg CYM plus 50 mg/kg GEM through intraperitoneal injections twice per week. Luciferase intensity was quantified twice per week and normalized with the value obtained from the starting day. […] Consistent with imaging, of the four groups, mice treated with GEM plus CYM generated xenograft tumors with the smallest size (FIG. 6C) and weight (FIG. 6D).
Tissue samples were fixed with 4% paraformaldehyde overnight at 4° C., washed with 70% ethanol and then embedded in paraffin. After De-paraffin and rehydration, antigen retrieval was preceded in hot antigen retrieving buffer with a normal-pressure steamer for 30 min. blocking was proceeded 1 hour at room temperature in PBS containing 1% horse serum. Primary antibody was stained overnight at 4° C. in PBS plus 0.5% Triton X-100 and 5% horse serum. Secondary antibody was incubated at room temperature for 1.5 hours.
Mouse Procedures. To assess in vivo effects of Cymarin (CYM), Luciferase-labelled SW1990 cells were transplanted to nude mice subcutaneously. Each mouse received four injections (5×10^5 cells/site). 12 days later, mice were randomly separated into 4 groups and treated with PBS (control), GEM (50 mg/kg bodyweight), CYM (2 mg/kg bodyweight) or GEM (50 mg/kg bodyweight) plus CYM (2 mg/kg bodyweight) twice weekly via intraperitoneal injection. Image acquisition was performed twice weekly with Xtreme Optical and X-ray small animal imaging system. Luciferin potassium salt (Regis), substrate of luciferase, was applied at 2 mg/25 g bodyweight in 150 μl PBS. Isoflurane (Henry Schein) was used for anesthesia during imaging.

[3] = test system: UGT1A10 overexpressing SW1990 cells; assay: Cell viability of UGT1A10 overexpressing cells; assay type: cell-based; conditions: 50 nM CYM, control vs UGT1A10 overexpressing SW1990
Source text: To determine whether UTG1A10 is sufficient to induce TRA-1-81 expression and chemoresistance, UGT1A10 was overexpressed ectopically in SW1990 cells (UGT-OE). Cells expressing firefly luciferase were used as control (CTRL). […] Indeed, the viability of UGT-OE cells is higher than control cells following GEM treatment (FIG. 4G). […] In summary, UGT1A10 is both required and sufficient to enhance TRA-1-60 and TRA-1-81 expression and chemoresistance.
LentiLuc-blast and LentiUGT1A10-blast plasmid were generated based on LentiCas9-blast vector (Addgene, 52926). Luciferasec DNA was cloned from pGL3-promoter plasmid (Promega) with PCR amplification and inserted between AgeI and BamHI sites. UGT1A10 cDNA was PCR amplified from plasmid purchased from Dharmacon (MHS6278-202756114) and inserted between XbaI and BamHI sites. Primers were used as below: […]
Cell viability, colony formation, sphere formation and growth curve. To quantify viability, cells were plated into 96-well plates (6000/well) one night before treatment. Drugs were then added in indicated dose for 5 days. After fixation, cell nuclei were stained with DAPI (Invitrogen). Plates were analyzed using MetaXpress High Content Image Acquisition and Analysis System (Molecular Devices).

CO[C@H]1C[C@H](O[C@H]2CC[C@]3(C=O)[C@H]4CC[C@]5(C)[C@@H](C6=CC(=O)OC6)CC[C@]5(O)[C@@H]4CC[C@]3(O)C2)O[C@H](C)[C@H]1O [CYM, Cymarin]
percentage of Annexin V+/DAPI− (early) and Annexin V+/DAPI+ (late) apoptotic cells [1]: increased | tumor growth (luciferase intensity) ([2]; 3 weeks, i.p. twice per week, GEM 50 mg/kg, CYM 2 mg/kg): grew more slowly | percentage of TRA-1-60+ cells in xenograft tumors ([2]; CYM administration in GEM-treated tumors, immunofluorescence): ~13% | cell apoptosis in xenograft tumors (TUNEL+ cells) ([2]; TUNEL assay): cell death increased | effect of ectopic UGT1A10 expression on Cymarin anti-chemoresistant activity [3]: partially rescues

Source: patent publication US20240277744A1, “TREATMENT OF CHEMORESISTANT CANCER CELLS” (Cornell University, priority 2023, published 2024)
